Assay results taken from US20250026724A1, “(1,4,5-TRISUBSTITUTED 1H-PYRAZOL-3-YL)OXY-2-ALKYLTHIOALKYL ACIDS AND -ALKYL ACID DERIVATIVES, SALTS THEREOF AND USE THEREOF AS ACTIVE HERBICIDAL INGREDIENTS” (BAYER AKTIENGESELLSCHAFT, priority 2021, published 2025).

Experiments:
Assay in all cases: Post-emergence herbicidal action, greenhouse pot trial
Format in all cases: in vivo
[1] = tested on: Matricaria inodora (MATIN); settings: 320 g/ha, visual rating after about 3 weeks; for pest or weed control at 320 g/ha: Tripleurospermum inodorum, 504 h, read-out: Post-emergence effect at 320 g/ha against MATIN in %
Protocol: (§1) Seeds of monocotyledonous and dicotyledonous weeds and crop plants are placed in sandy loam in plastic or organic planting pots, covered with soil and cultivated in a greenhouse under controlled growth conditions. 2 to 3 weeks after sowing, the trial plants are treated at the one-leaf stage. The compounds of the invention, formulated in the form of wettable powders (WP) or as emulsion concentrates (EC), are then sprayed onto the green parts of the plants as aqueous suspension or emulsion with addition of 0.5% additive at a water application rate equivalent to 600 l/ha. After about 3 weeks of keeping the trial plants in the greenhouse under optimum growth conditions, the effect of the preparations is rated visually in comparison to untreated controls. For example, 100% activity=the plants have died, 0% activity=like control plants.
(§2) Tables B1 to B14 below show the effects of selected compounds of the general formula (I) according to Table 1 on various harmful plants and at an application rate corresponding to 320 g/ha or lower, which were obtained by the trial procedure specified above. The appendices “a”, “b” and “c” give differentiation by dosage used with otherwise the same harmful plants tested.
(§3) As shown by results from Tables B1 to B19, inventive compounds of the general formula (I) in the case of post-emergence treatment have good herbicidal efficacy against harmful plants, for example Abutilon theophrasti (ABUTH), Alopecurus myosuroides (ALOMY), Amaranthus retroflexus (AMARE), Avena fatua (AVEFA), Digitaria sanguinalis (DIGSA), Echinochloa crus-galli (ECHCG), Bassia scoparia (KCHSC), Lolium rigidum (LOLRI), Matricaria inodora (MATIN), Pharbitis purpurea (PHBPU), Polygonum convolvulus (POLCO), Setaria viridis (SETVI), Veronica persica (VERPE) and Viola tricolor (VIOTR) at an application rate of 320 g of active substance or less per hectare, and good crop plant compatibility in the case of organisms such as Oryza sativa (ORYSA), Zea mays (ZEAMX), Brassica napus (BRSNW), Glycine max (GLXMA) and Triticum aestivum (TRZAS) at an application rate of 320 g or less per hectare.

Setaria viridis (SETVI) = settings: visual rating after about 3 weeks; for pest or weed control at 320 g/ha: Setaria viridis, 504 h, read-out: Post-emergence effect at 320 g/ha against SETVI in %
Protocol: as §1, §2, §3

[2] = tested on: Digitaria sanguinalis (DIGSA); settings: visual rating after about 3 weeks; for pest or weed control at 320 g/ha: Digitaria sanguinalis, 504 h, read-out: Post-emergence effect at 320 g/ha against DIGSA in %
Protocol: as §1, §2, §3

[3] = tested on: Echinochloa crus-galli (ECHCG); settings: visual rating after about 3 weeks; for pest or weed control at 80 g/ha / pest or weed control at 320 g/ha: Echinochloa crus-galli, 504 h; for pest or weed control at 80 g/ha: read-out: Post-emergence effect at 80 g/ha against ECHCG in %; for pest or weed control at 320 g/ha: read-out: Post-emergence effect at 320 g/ha against ECHCG in %
Protocol: as §1, §2, §3

Bassia scoparia (KCHSC) = settings: 320 g/ha; for pest or weed control at 320 g/ha: Bassia scoparia, 504 h, read-out: Post-emergence effect against KCHSC
Protocol: as §1, §2, §3

Avena fatua (AVEFA) = settings: 320 g/ha, visual rating after about 3 weeks; for pest or weed control at 320 g/ha: Avena fatua, 504 h, read-out: Post-emergence effect at 320 g/ha against AVEFA in %
Protocol: as §1, §2, §3

[4] = tested on: Amaranthus retroflexus (AMARE); settings: visual rating after about 3 weeks; for pest or weed control at 80 g/ha / pest or weed control at 320 g/ha: Amaranthus retroflexus, 504 h; for pest or weed control at 80 g/ha: read-out: Post-emergence effect at 80 g/ha against AMARE in %; for pest or weed control at 320 g/ha: read-out: Post-emergence effect at 320 g/ha against AMARE in %
Protocol: as §1, §2, §3

[5] = tested on: Polygonum convolvulus (POLCO); settings: visual rating after about 3 weeks; for pest or weed control at 80 g/ha / pest or weed control at 320 g/ha: Fallopia convolvulus, 504 h; for pest or weed control at 80 g/ha: read-out: Post-emergence effect at 80 g/ha against POLCO in %; for pest or weed control at 320 g/ha: read-out: Post-emergence effect at 320 g/ha against POLCO in %
Protocol: as §1, §2, §3

[6] = tested on: Alopecurus myosuroides (ALOMY); settings: Alopecurus myosuroides, 504 h, 320 g/ha, visual rating after about 3 weeks, read-out: Post-emergence effect at 320 g/ha against ALOMY in %
Protocol: as §1, §2, §3

Viola tricolor (VIOTR) = settings: for pest or weed control at 320 g/ha / pest or weed control at 80 g/ha: Viola tricolor, 504 h, read-out: Post-emergence effect against VIOTR
Protocol: as §1, §2, §3

[7] = tested on: Abutilon theophrasti (ABUTH); settings: visual rating after about 3 weeks; for pest or weed control at 320 g/ha: read-out: Post-emergence effect at 320 g/ha against ABUTH in %
Protocol: as §1, §2, §3

[8] = tested on: Pharbitis purpurea (PHBPU); settings: visual rating after about 3 weeks; for pest or weed control at 320 g/ha / pest or weed control at 80 g/ha: Ipomoea purpurea, 504 h; for pest or weed control at 320 g/ha: read-out: Post-emergence effect at 320 g/ha against PHBPU in %; for pest or weed control at 80 g/ha: read-out: Post-emergence effect at 80 g/ha against PHBPU in %
Protocol: as §1, §2, §3

Lolium rigidum (LOLRI) = settings: Lolium rigidum, 504 h, 320 g/ha, visual rating after about 3 weeks, read-out: Post-emergence effect at 320 g/ha against LOLRI in %
Protocol: as §1, §2, §3

Row | Compound | pest or weed control at 320 g/ha [6] | pest or weed control at 320 g/ha [1] | pest or weed control at 320 g/ha (Setaria viridis (SETVI)) | pest or weed control at 320 g/ha [2] | pest or weed control at 320 g/ha [3] | pest or weed control at 320 g/ha (Lolium rigidum (LOLRI)) | pest or weed control at 320 g/ha (Viola tricolor (VIOTR); 320 g/ha) | pest or weed control at 320 g/ha [8] | pest or weed control at 320 g/ha [5] | pest or weed control at 80 g/ha (Viola tricolor (VIOTR); 80 g/ha) | pest or weed control at 320 g/ha ([7]; Abutilon theophrasti, 504 h) | other results
1 | CSC(Oc1nn(-c2ncccc2F)c(-c2ccc(F)nc2)c1Br)C(=O)O (single isomer, unassigned) [Example I-25] | 90% | – | – | – | – | – | – | – | – | – | – | Post-emergence effect at 320 g/ha against MATIN in % [1]: 80%; Post-emergence effect at 320 g/ha against SETVI in % (Setaria viridis (SETVI)): 90%; Post-emergence effect at 80 g/ha against DIGSA in % [2]: 80%; Post-emergence effect at 320 g/ha against DIGSA in % [2]: 90%; Post-emergence effect at 320 g/ha against ECHCG in % [3]: 90%; pest or weed control at 80 g/ha [3]: 80%; Post-emergence effect against KCHSC (Bassia scoparia (KCHSC)): 90%; Post-emergence effect at 320 g/ha against AVEFA in % (Avena fatua (AVEFA)): 90%; Post-emergence effect at 320 g/ha against AMARE in % [4]: 90%; pest or weed control at 80 g/ha ([4]; 80 g/ha): 90%; Post-emergence effect at 320 g/ha against POLCO in % [5]: 80%; pest or weed control at 80 g/ha ([5]; 80 g/ha): 80%; Post-emergence effect against VIOTR (Viola tricolor (VIOTR); 320 g/ha): 90%; Post-emergence effect at 320 g/ha against ABUTH in % [7]: 90%; Post-emergence effect at 80 g/ha against PHBPU in % ([8]; 80 g/ha): 90%; Post-emergence effect at 320 g/ha against PHBPU in % [8]: 90%
2 | COC(=O)C(Oc1nn(-c2ncccc2F)c(-c2ccc(F)nc2)c1Br)SC (single isomer, unassigned) [Example I-27] | – | – | – | – | – | – | – | – | – | – | – | Post-emergence effect at 320 g/ha against MATIN in % [1]: 80%; Post-emergence effect at 320 g/ha against SETVI in % (Setaria viridis (SETVI)): 90%; Post-emergence effect at 320 g/ha against DIGSA in % [2]: 90%; Post-emergence effect at 320 g/ha against ECHCG in % [3]: 90%; pest or weed control at 320 g/ha (Bassia scoparia (KCHSC)): 80%; Post-emergence effect at 320 g/ha against AVEFA in % (Avena fatua (AVEFA)): 90%; Post-emergence effect at 80 g/ha against AMARE in % ([4]; 80 g/ha): 80%; Post-emergence effect at 320 g/ha against AMARE in % [4]: 80%; Post-emergence effect at 20 g/ha against POLCO in % ([5]; 20 g/ha): 80%; Post-emergence effect at 80 g/ha against POLCO in % ([5]; 80 g/ha): 80%; Post-emergence effect at 320 g/ha against POLCO in % [5]: 90%; Post-emergence effect against VIOTR (Viola tricolor (VIOTR); 80 g/ha): 80%; Post-emergence effect against VIOTR (Viola tricolor (VIOTR); 320 g/ha): 90%; Post-emergence effect at 80 g/ha against ABUTH in % ([7]; 80 g/ha): 80%; Post-emergence effect at 320 g/ha against ABUTH in % [7]: 90%; Post-emergence effect at 320 g/ha against PHBPU in % [8]: 100%
3 | CCOC(=O)C(Oc1nn(-c2ccccc2F)c(-c2ccc(F)nc2)c1Br)SC (single isomer, unassigned) [Example I-30] | 90% | 80% | 80% | 90% | 80% | 80% | 90% | 80% | – | – | – | Post-emergence effect at 80 g/ha against DIGSA in % [2]: 80%; pest or weed control at 80 g/ha [3]: 80%
4 | CCOC(=O)C(Oc1nn(-c2ccccc2)c(-c2ccc(F)nc2)c1Br)SC (centres unmarked) [Example I-04] | – | 90% | 90% | 80% | 80% | 90% | 90% | – | 90% | 80% | 80% | pest or weed control at 80 g/ha ([5]; 80 g/ha): 80%
5 | CCOC(=O)C(Oc1nn(-c2cnccn2)c(-c2ccc(F)nc2)c1Cl)SC (centres unmarked) [Example I-16] | 80% | – | – | – | 80% | – | – | 80% | 80% | – | – | –
6 | CCOC(=O)C(Oc1nn(-c2ncccc2F)c(-c2ccc(F)nc2)c1Cl)SC (centres unmarked) [Example I-19] | – | 90% | 90% | 80% | 100% | 100% | 100% | 90% | 90% | 90% | 90% | pest or weed control at 320 g/ha (Avena fatua (AVEFA)): 100%; pest or weed control at 80 g/ha ([4]; 80 g/ha): 80%; pest or weed control at 320 g/ha [4]: 90%; pest or weed control at 80 g/ha ([8]; 80 g/ha): 80%
7 | CSC(Oc1nn(-c2ncccc2F)c(-c2ccc(F)nc2)c1Cl)C(=O)O (centres unmarked) [Example I-31] | 80% | 80% | 80% | 80% | 90% | – | – | 80% | 80% | – | – | pest or weed control at 80 g/ha [3]: 80%; pest or weed control at 320 g/ha (Avena fatua (AVEFA)): 80%; pest or weed control at 320 g/ha [4]: 80%
8 | CSC(Oc1nn(-c2cnccn2)c(-c2ccc(F)nc2)c1Br)C(=O)O (centres unmarked) [Example I-36] | 90% | – | – | – | – | – | 80% | 90% | 90% | – | 80% | pest or weed control at 320 g/ha (Bassia scoparia (KCHSC)): 90%
9 | CSC(Oc1nn(-c2cnccn2)c(-c2ccc(F)nc2)c1Cl)C(=O)O (centres unmarked) [Example I-37] | 90% | – | – | – | – | – | 80% | 90% | 90% | – | 80% | pest or weed control at 320 g/ha (Bassia scoparia (KCHSC)): 90%
10 | COC(=O)C(Oc1nn(-c2ccccc2F)c(-c2ccc(F)nc2)c1I)SC (centres unmarked) [Example I-52] | – | 80% | 90% | 80% | 90% | 100% | 90% | – | 90% | 80% | 80% | Post-emergence effect at 80 g/ha against SETVI in % (Setaria viridis (SETVI); 80 g/ha): 80%; pest or weed control at 320 g/ha [4]: 90%
11 | COC(=O)C(Oc1nn(-c2ncccc2F)c(-c2ccc(F)nc2)c1C1CC1)SC (centres unmarked) [Example I-59] | – | – | – | – | 90% | 90% | 80% | 90% | – | 80% | 90% | pest or weed control at 320 g/ha (Avena fatua (AVEFA)): 90%; pest or weed control at 80 g/ha ([7]; Abutilon theophrasti, 504 h, 80 g/ha, read-out: Post-emergence effect at 80 g/ha against ABUTH in %): 80%; pest or weed control at 80 g/ha ([8]; 80 g/ha): 90%
